Results on 1 compound are retold here after patent publication US11834431B2, “Crystals of cyclic amine derivative and pharmaceutical use thereof” (Toray Industries, Inc., priority 2016, dated 2023).

The test system of the assay is fibromyalgia model rats. The assay is described as follows: Analgesic effect on allodynia in fibromyalgia model rats (von Frey, 50% response threshold). The class given is in vivo, rat. To be noted: measured 3 hours after administration, Day 7, compared to negative control group. As to the method: The analgesic effect of the crystal of compound (I) or the pharmacologically acceptable salt thereof against fibromyalgia syndrome was evaluated using fibromyalgia model rats (Sluka et al., Journal of Pharmacology and Experimental Therapeutics, 2002, vol. 302, pp. 1146-1150; Nagakura et al., Pain, 2009, vol. 146, pp. 26-33; Sluka et al., Pain, 2009, vol. 146, pp. 3-4). Form A crystal of compound (I) was used as a crystal of compound (I) or the pharmacologically acceptable salt thereof for evaluation.
The above model rats were prepared as follows. In experiments, 6-to 7-week-old SD male rats were used for 5 or 6 cases per group. 100 μL of acidic physiological saline adjusted to pH 4.0 was administered twice to the gastrocnemius muscle of the right hind paw of each rat (the day of the administration of acidic physiological saline was defined as Day 1 after the start of the experiment, and single dose administrations were carried out on Days 1 and 6 after the start of the experiment) under inhalation anesthesia with isoflurane. The thus prepared group was determined to be an acidic physiological saline group. As a control for the model, a group treated with a physiological saline instead of an acidic physiological saline was determined to be a physiological saline group.
Allodynia observed in fibromyalgia model rats was measured using a von Frey filaments according to a method described in a known publication (Chaplan et al., Journal of Neuroscience Methods, 1994, vol. 53, pp. 55-63) and a 50% response threshold (g) was determined. On Day 7 after the start of the experiment, allodynia was measured 3 hours after oral administration of Form A crystal of compound (I), and the analgesic effect was evaluated. Allodynia of the acidic physiological saline group was measured before oral administration of Form A crystal of compound (I). […] Allodynia was measured 3 hours after the oral administration of the crystal of compound (I), and the analgesic effect was evaluated. […]

Consider `CN(C)C1CCN(C(=O)C[C@H](O)c2nccn2C)CC1` [Form A crystal, (S)-1-(4-(dimethylamino)piperidin-1-yl)-3-hydroxy-3-(1-methyl-1H-imidazol-2-yl)propan-1-one], for which the “improvement of allodynia (50% response threshold)” value runs as follows: (oral 1 mg/kg) “significant improvement”; (oral 10 mg/kg) “significant improvement”.
